# According to US4129643A, “Method for rapid screening of teratogenic agents” (priority 1976, dated 1978):
# Columns and labels:
# Type in all cases: cell-based
# [1] = test system: lens epithelial cells; assay: morphology of lens epithelial cells grown in amniotic fluid from injected mice; conditions: amniotic fluid from mice injected once s.c. at 12-15 days gestation, harvested 1-2 h after; diluted to 50% with culture medium; two days' culture
# Experimental: Mice of numerous genotypes were taken from amongst all the more prolific strains available from the Institute of Animal Genetics Mouse House (Mouse News Letter, 1974). They were mated and the pregnancies dated by vaginal plug. They were injected once, subcutaneously, with a teratogen, between 12-15 days of gestation in order to obtain a large volume of clear amniotic fluid. 1-2 hours after the injection the mice were killed by cervical dislocation, the uteri removed and the amniotic fluid harvested under sterile conditions, passed through a Millex filter and stored at -20°C. Control amniotic fluids were obtained from uninjected mice of a similar range of genotypes and stages of gestation. Mice were injected with double the teratogenic doses used for 6-aminonicotinamide by Pinsky and Fraser (Biol. Neonat., 1,106-112 (1959)) and for sodium acetyl salicylate by Larsson and Erickson (Acta. Paed. Scand., 55, 569-576, )1976)), but the amniotic fluids were diluted to 50% with culture medium for use, thus giving a final concentration similar to that used by these authors. Five batches of pooled amniotic fluid of each kind were prepared in this way and tested in separate culture experiments. […]
# [2] = test system: test cells; assay: screening test for teratogenic activity with cells cultured in amniotic fluid; conditions: tests on two teratogens in the mouse
# Text: According to my invention I provide a process for screening a compound for teratogenic activity comprising administering the compound being screened to a test animal, removing amniotic fluid from the test animal, using the amniotic fluid removed as part or all of a cell culture medium, and measuring the effect on cell properties of cells grown in the culture medium containing the amniotic fluid from the test animal as compared with the use of amniotic fluid from an otherwise identical control animal that has not had the compound being screened administered to it.
# (1) Amniotic fluid is used as cell culture medium or as an additive to a standardised cell culture medium in order to test the substance as processed by the maternal organism. Amniotic fluids either from animals of diverse genotype or of selected genotypes, as required, are pooled. […]
# (2) A standardised cell suspension is innoculated into cultures and grown during log phase in the medium containing amniotic fluid from a control or test series as described above. […] Lens epithelium has been used since I have published evidence that quantitative regulation of specific syntheses is of especial importance in this orgen and the assay system described in (3) below detects changes in mitotic rate, cell mass, and growth conditions, cell surface modification and genetically determined pathology. […]
# [3] = test system: lens epithelial cells; assay: protein profile (accumulated protein, stained isoelectric focussing gels) of lens epithelial cells grown in amniotic fluid from injected mice; conditions: diluted to 50% with culture medium; for changes in the protein profile (bands of stained gels): Coomassie Blue stained gels, densitometry
# Experimental: Similar densitometry is made of the autoradiograph of the gels. Each analysis can be done on a culture grown from a cell suspension of as little as 1-4.5 × 10^5 cells, but can be scaled up or down as required.
# Mice of numerous genotypes were taken from amongst all the more prolific strains available from the Institute of Animal Genetics Mouse House (Mouse News Letter, 1974). They were mated and the pregnancies dated by vaginal plug. They were injected once, subcutaneously, with a teratogen, between 12-15 days of gestation in order to obtain a large volume of clear amniotic fluid. 1-2 hours after the injection the mice were killed by cervical dislocation, the uteri removed and the amniotic fluid harvested under sterile conditions, passed through a Millex filter and stored at -20°C. Control amniotic fluids were obtained from uninjected mice of a similar range of genotypes and stages of gestation. Mice were injected with double the teratogenic doses used for 6-aminonicotinamide by Pinsky and Fraser (Biol. Neonat., 1,106-112 (1959)) and for sodium acetyl salicylate by Larsson and Erickson (Acta. Paed. Scand., 55, 569-576, )1976)), but the amniotic fluids were diluted to 50% with culture medium for use, thus giving a final concentration similar to that used by these authors. Five batches of pooled amniotic fluid of each kind were prepared in this way and tested in separate culture experiments.
# Cultures of dissociated lens epithelial cells were prepared according to Okada, Eguchi and Takeichi (Dev. Growth Diffn., 13,323-326 (197l)), and plated at 4.5 × 10^5 cells per dish in 3.5 ml Earles MEM (Biocult) containing 6% foetal calf serum (Gibco). The medium was changed at 2 days, and after 4 days, when these cells were in log phase, the medium was replaced by 1 ml of medium and 1 ml of amniotic fluid. After two further days the cells were labelled for 4 to 5 hours with ^14 C mixed amino acids (Amersham) at 20 μCi/ml. The cultures were washed several times in Hanks solution, harvested with a miniature plastic scraper and taken up into a drop of 8M urea containing 10 mM β-mercaptoethanol. The drop was frozen and thawed three times to liberate the cell contents. When required, the living cells were examined with a Gilbert and Siebert inverted phase microscope.
# Polyacrylamide gels containing ampholines according to Wrigley (Science Tools, 15, 17-23, (1968)) were modified to contain 6M urea, 10mM β-mercaptoethanol, and an ampholine mixture giving a gradient from pH 3 to 10, flattened in the region of 4.5 to 7.0. Such gels give especially high resolution for crystallins and are now routinely used in my laboratory. 20 μl of cell preparation was added to each gel which was electrofocussed overnight according to Wrigley (loc. cit.). […]
Compound,cell outline / morphology [1],discrimination of treated cells from control cells [2],other quantitative changes in the protein profile [3],changes in the protein profile (bands of stained gels) [3]
NC(=O)c1ccc(N)nc1 [6-aminonicotinamide],modified cell outline,"distinguish reliably and specifically between the cells treated by each of these teratogens, and control cells","some other, less striking quantitative changes were also recorded",one band being missing and one exaggerated
CC(=O)Oc1ccccc1C(=O)O [sodium acetyl salicylate],normal in morphology,"distinguish reliably and specifically between the cells treated by each of these teratogens, and control cells",Other quantitative changes were also observed,lacking in the band which was enhanced by 6-aminonicotinamide treatment
